Measured values taken from BindingDB's records for doi:10.7270/Q2VQ314Z (Burnham Center For Chemical Genomics, 2010).

Biological target: T1, Tyrosine-protein phosphatase non-receptor type 7 (Homo sapiens, UniProt P35236)
T1 sequence (P35236 whole entry): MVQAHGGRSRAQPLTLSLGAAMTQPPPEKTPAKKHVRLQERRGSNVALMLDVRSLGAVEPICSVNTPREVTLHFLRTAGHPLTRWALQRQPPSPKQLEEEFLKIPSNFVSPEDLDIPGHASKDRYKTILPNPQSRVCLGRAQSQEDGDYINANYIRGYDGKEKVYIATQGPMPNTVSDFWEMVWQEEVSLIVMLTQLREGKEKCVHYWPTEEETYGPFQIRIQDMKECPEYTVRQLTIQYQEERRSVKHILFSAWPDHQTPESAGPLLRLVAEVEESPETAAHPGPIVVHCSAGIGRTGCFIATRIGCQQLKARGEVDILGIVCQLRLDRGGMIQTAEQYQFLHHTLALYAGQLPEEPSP
Assay: HePTP phosphatase inhibitors, dose response, biochemical, fluorescence, OMFP substrate, HTS hits, set 2 (AID 435032)

| SMILES | IC50 |
| --- | --- |
| O=C1C([N+](=O)[O-])=CC(Br)=CC1/C=N/n1cnnc1 (stereo not given) [MLS000714804] | > 79.4 µM |
| CCOC(=O)NC(=O)C(C=Nc1ccc(C)cc1)C(=O)NC(=O)OCC [ethyl 2-{[(ethoxycarbonyl)amino]carbonyl}-3-(4-toluidino)acryloylcarbamate] | > 79.4 µM |

Now from value to compound:

| IC50 | SMILES |
| --- | --- |
| 7.33 µM | N=C(NN=Cc1ccc2c(c1)OCO2)Sc1cc(O)n(-c2ccc(C(=O)O)cc2)c1O [4-(3-{[[(2E)-2-(1,3-benzodioxol-5-ylmethylene)hydrazino](imino)methyl]thio}-2,5-dioxopyrrolidin-1-yl)benzoic acid] |
| > 79.4 µM | Cc1ccc(NN=C2C(=O)N(CN3CCOCC3)c3ccccc32)cc1 [(3Z)-3-[(4-methylphenyl)hydrazinylidene]-1-(4-morpholinylmethyl)-2-indolone] |
| 14.9 µM | COC1=CC=CC(/C=N/NC(=O)c2cc3cc([N+](=O)[O-])ccc3s2)C1=O (stereo not given) [SMR000237814] |
